Experimental data taken from BindingDB's records for doi:10.1021/jm00080a018 (Toyo Jozo, 1992).

The compounds below were run against Adenosylhomocysteinase (Oryctolagus cuniculus) (assay: Inhibitory effect against S-adenosyl-L-homocysteine hydrolase of rabbit erythrocyte.).

SMILES	IC50 [µM]
CC1=C[C@@H](n2cnc3c(N)ncnc32)[C@H](O)[C@@H]1O	> 40.4
Nc1ncnc2c1ncn2[C@@H]1C=C(CF)[C@@H](O)[C@H]1O	> 37.7
C=CC1=C[C@@H](n2cnc3c(N)ncnc32)[C@H](O)[C@@H]1O	> 38.5

Further lines, results first:

IC50 [µM]	SMILES
> 35.4	Nc1ncnc2c1ncn2[C@@H]1C=C(CCl)[C@@H](O)[C@H]1O
> 36	COCC1=C[C@@H](n2cnc3c(N)ncnc32)[C@H](O)[C@@H]1O
> 34	CSCC1=C[C@@H](n2cnc3c(N)ncnc32)[C@H](O)[C@@H]1O
